This is an account of results in patent US9333240B2, “Compounds for improving nutritional status, cognition and survival” (YISSUM RESEARCH DEVELOPMENT COMPANY OF THE HEBREW …, priority 2005, dated 2016).

Experiment [1] has as its system norepinephrine and dopamine in the hippocampus. Description: Hippocampal catecholamine measurements (HPLC-ECD). The experiment is classed as in vivo, mice. To be noted: AICAR 1-2 mM daily for 10 days. The procedure: Control mice received food ad-libitum. Diet-restricted mice received a diet of 57 kCal/week/mouse (2.16 g/day/mouse) as 60% of the requirement, or 38 kCal/week/mouse (1.44 g/day/mouse) for 40%/DR. DR was carried out for 10 days. Behavioral test was performed using the eight-arm spatial maze during the second week of experiment. During the behavioral tests, half of the animals in each group were injected intraperitoneally (i.p) with AICAR (1-2 mM equal to 258-516 mg/kg) or leptin (1 mg/kg) and the other half with saline. Mice were sacrificed by decapitation after the behavioral tests and the hippocampi were frozen at -70° C. Catecholamines were measured as described previously ([…] et al (1996), Brain Res. 732, 133-144. The assays for dopamine and NE were performed by HPLC separation and detection using HPLC-ECD. Values are presented as a concentration (ng/mg tissue).

Experiment [2] concerns BrdU-immunoreactive cells in the dentate gyrus. Description: BrdU labelling of newly generated cells in the dentate gyrus of mice. Type of experiment: in vivo. Conditions: 25 nM AICAR once daily for 10 days vs saline. The protocol: In order to determine what is “low level activation” varying doses of the AMPK pathway activator may be administered to test animals in the final formulation intended to be used in humans, together with Brd-U. Animals are than sacrificed and the number of BrdU-immunoreactive cells in the dentate gyrus is determined in order to measure the generation rate of new cells. Amounts that are capable of increasing the number of newly generated cells are considers as “therapeutically effective amounts” when converted, according to known criteria, to physiologically corresponding amounts in humans.
The function of AMPK activation in the hippocampus was evaluated. […] Mice were treated with bromodeoxyuridine (BrdU) and either saline or 25 nM AICAR (low level stimulation) once daily for 10 days. […] Next, behavioral testing was performed using the eight-arm maze to determine whether there was a concomitant improvement in cognition. […] (FIG. 1C).
In general terms: Dividing cells build labelled thymidine or BrdU into new DNA.

In experiment [3] the test system is differentiated PC-12 cells. Description: Viable cell number of differentiated PC-12 cells. Type of experiment: cell-based. Conditions: AICAR 0.125 to 1.0 mM, 96 h. The procedure:
PC-12 cells were kindly provided by O. Meyuhas, Dept. of Biochem., Faculty of Medicine, Jerusalem. These cells were grown either in Dulbecco's modified Eagle's medium (DMEM) supplemented with 8% horse serum, 8% fetal bovine serum (FBS), glutamine, and gentamicin or with 1% horse serum, in the presence of nerve growth factor (NGF) (50 ng/ml), which causes the cells to differentiate. Murine leptin was provided by A. Gertler. AICAR was obtained from Toronto Research Chemicals (TRC). To confirm the cellular effects of AMPK in the hippocampus, in-vitro studies on PC-12 cells were also preformed.

Another experiment concerns PC-12 cells. Description: Annexin V FACS analysis of apoptosis in PC-12 cells. Type of experiment: cell-based. Conditions: AICAR, 48 h. The procedure:
Cells were grown in 60-mm plates and treated with AICAR for 48 h. Apoptosis was evaluated using the Annexin V FITC Detection Kit (Oncogene Research Products, Cambridge Mass.). Briefly, both attached and floating cells were collected, washed with cold PBS, re-suspended at a density of 5×10^5/ml in 0.5 ml DMEM, stained for annexin V and analyzed by flow cytometry. The apoptotic ratio at 48 h, was also evaluated, by FACS analysis.
Background: In flow cytometry, cells or beads pass a laser one at a time.

A further experiment relates to mice. Description: Eight-arm maze, mice ad libitum or diet restricted. The experiment is classed as in vivo. The protocol:
Control mice received food ad-libitum. Diet-restricted mice received a diet of 57 kCal/week/mouse (2.16 g/day/mouse) as 60% of the requirement, or 38 kCal/week/mouse (1.44 g/day/mouse) for 40%/DR. DR was carried out for 10 days. Behavioral test was performed using the eight-arm spatial maze during the second week of experiment. […] Mice were sacrificed by decapitation after the behavioral tests and the hippocampi were frozen at −70° C. The animals were placed in an eight-arm maze, which is a scaled-down version of that developed for rats (Randt et al, (1971) Science 172, 489-499; Ziv et al (1994) Neuroscience Lett, 170, 136-140). […] The mice were tested until they made entries into all eight arms or until they completed 24 entries, whichever came first. […] Maze performance was calculated each day for five consecutive days. Results were presented as area under the curve (AUC) utilizing the formula: (day 2+day 3+day 4+day 5)−4*(day 1).

A further experiment has as its system Bcl-2, Bax, PARP. Description: Hippocampal apoptosis proteins by RT-PCR and immunoblotting. The experiment is classed as in vivo, mice. To be noted: AICAR treatment (1-2 mM), RT-PCR and immunoblotting. The procedure: Total hippocampal RNA was extracted using […] reagent according to the manufacturer's instructions and reverse transcribed. Primers specific for OBRlong were […] NO: 1) and […] NO: 6), for […] NO: 2), and […] NO: 7), for BAX […] NO: 3) and […] NO: 8) for Bcl-2 […] NO: 4) and […] NO: 9) and for actin […] NO: 5) and […] NO: 10). […] Total hippocampal Protein was extracted using […] reagent. Aliquots of the clarified lysates containing […] were denatured in Laemmli sample buffer (6% SDS 30%, glycerol, 0.02% bromophenol blue, 200 mM Tris-HCl (pH 6.8), and 250 mM-mercaptoethanol, at 95° C. for 5 min. The samples were resolved by SDS-PAGE (10% acrylamide), and blotted onto nitrocellulose membrane. Non-specific binding in a Western blot analysis was prevented by immersing the membranes in blocking buffer (5% nonfat dry milk in Tris-buffer saline-Tween 20 (TBS-T)), for 2 h at room temperature. The membranes were then exposed to the indicated antibodies diluted 1:1000 for 1 h at room temperature. AMPK, phospho-AMPK and PARP were obtained from Cell Signaling. Bax, bcl-2 and actin were from Santa Cruz Biotechnology Inc. (Santa Cruz, Calif.). The blots were rinsed in TBS-T and then incubated with horseradish peroxidase-conjugated goat anti-mouse antibodies 1:10,000 for 1 h at room temperature. Antibody-antigen complexes were visualized by detecting enhanced chemiluminescence with X-ray film.
(A western blot detects proteins with antibodies after separation by electrophoresis.)

As for `NC(=O)c1ncn([C@@H]2O[C@H](CO)[C@@H](O)[C@H]2O)c1N` [AICAR, 5-aminoimidazole-4-carboxamide ribonucleoside, reference compound], the dopamine concentrations result in experiment [1] (p<0.05) is given as “elevating”. Further, the “norepinephrine (NE) concentrations” value in experiment [1] (p<0.05, 0.01 for the two dosages) is on record as “decreased”. For the same molecule, the “number of BrdU-immunoreactive cells in the dentate gyrus (generation rate of new cells)” value in experiment [2] is on record as “significantly increased”. In addition, the “number of viable cells” value in experiment [3] was “dose-dependent reduction in the number of viable cells, reaching almost total after 96 h”. Further, in the experiment on PC-12 cells, the “apoptotic cell death (Annexin V staining)” value is “induces apoptotic cell death in a dose-dependent manner”. In the experiment on mice (25 nM AICAR (low level stimulation) vs controls), the eight-arm maze performance entry is “performed significantly better than the controls”. Further, the eight-arm maze performance result in the experiment with mice (high dose AICAR (1-2 mM) vs ad libitum group, similar to DR to 40%) is recorded as “significant deterioration in maze performance”. Besides, in the experiment with Bcl-2, Bax, PARP, the Bax level entry is given as “up-regulation” and the bcl-2 level result is given as “reducing”.
